Measured values: US20040029208A1, “Assay method and kit for testing biological material for exposure to stress using biomarkers” (priority 2000, published 2004)

Experiments:
Type in all cases: in vivo
[1] = system: Anagallis arvensis; experiment: Visual effect rating (0-9) after herbicide spraying; details: Roundup Bio, Anagallis arvensis
Text: (§1) Four, eight, sixteen and thirty two days after spraying, visual effects on plants were noted before harvest, using the rating chart described in Hamil. et al. (1977) and Boutin et al. (1993); a rating of zero indicates full growth and vigour, and a rating of nine indicates no growth/mortality.
(§2) The min. visual effect (VE) of the presence of plant biomarkers is rated as described by Hamil et al., (1977) and Boutin et al. (1993).

[2] = system: Lólium perénne; experiment: as above; details: Roundup Bio, Lólium perénne
Text: as §1, §2

[3] = system: Leonorus carica; experiment: Visual effect rating (0-9) after Roundup Bio
Procedure: as §1
(§3) The study was performed in greenhouse between August and December 1998 for all species. Degree days (=(Present temperature in ° C.-5° C.)×amount of days) were used as time scale. The plants were 226-378 degree days (30 days) old before exposure. The plants were exposed to 0, 1. 10 and 100% of the recommended field dose of Roundup Bio. Before the harvest, the plants were evaluated for visual effects using the rating chart described in Table 1 (Hamit et al., 1977). A rating of zero indicates full growth and vigour (compared with control plants) and a rating of nine, no growth/mortality. The plants were all harvested 180 degree days (14 days) after exposure. The plants were lyophilizied and k pt dry and in dark before phytochemical analysis.
(§4) Table 2: Sensitivity of plants exposed to glyphosate (Roundup Bio), based on presence of phytochemical changes in all the TLC-Systems at lowest dose of concentration (LC) of the herbicide in percent of field dose. The corresponding visual effect (VE) Is presented (see table 1).

[4] = system: Nepeta cataria; experiment: Visual effect rating (0-9) after Roundup Bio
Procedure: as §1, §3, §4

[5] = system: Sinapis avensis; experiment: Visual effect rating (0-9) after Roundup Bio
Procedure: as §1, §3, §4

[6] = system: Papaver rhoeas; experiment: Visual effect rating (0-9) after Roundup Bio
Procedure: as §1, §3, §4

[7] = system: Bellis perennis; experiment: Visual effect rating (0-9) after Roundup Bio
Procedure: as §1, §3, §4

[8] = system: Mentha spicata; experiment: Visual effect rating (0-9) after Roundup Bio
Procedure: as §1, §3, §4

[9] = system: Rudbeckia hirta; experiment: Visual effect rating (0-9) after Roundup Bio
Procedure: as §1, §3, §4

With O=C(O)CNCP(=O)(O)O [Glyphosate] the “VE: corresponding visual effect” value [1] was 0, the “VE: corresponding visual effect” value [2] was 0 and the “VE: corresponding visual effect” value [3] was 5. For the same compound, the “VE: corresponding visual effect” value [4] was 7, the “VE: corresponding visual effect” value [5] was 7 and the “VE: corresponding visual effect” value [6] was 4. For the same compound, the “VE: corresponding visual effect” value [7] was 7, the “VE: corresponding visual effect” value [8] was 6 and the “VE: corresponding visual effect” value [9] was 1.
